Results reported in patent US10463688B2, “Nylon-3 polymers active against Clostridium difficile” (priority 2015, dated 2019).
In brackets after ≈: the same amount, converted by molar mass.

Columns and labels:
[1] = test system: C. difficile spores (R20291 strain); assay: Viability of spores recovered from OIC assays (spore outplating), strain R20291; conditions: for R20291 Mean Spore Viability: CFU post-assay/initial CFU
[2] = test system: C. difficile spores (630Δerm strain); assay: microbe, parasite or virus in culture; conditions: Clostridioides difficile, 24 h, read-out: OIC, minimum inhibition concentration for spore outgrowth
[3] = test system: C. difficile spores (R20291 strain); assay: microbe, parasite or virus in culture; conditions: Clostridioides difficile, 24 h, read-out: OIC, minimum inhibition concentration for spore outgrowth
[4] = test system: C. difficile spores (630Δerm strain); conditions: 630Δerm spores; MH broth with taurocholate, 24 h at 37° C.
[5] = test system: C. difficile spores (630Δerm strain); assay: Viability of spores recovered from OIC assays (spore outplating), strain 630Δerm; type: cell-based, Clostridium difficile; conditions: CFU post-assay/initial CFU
Experimental: Experiments were conducted to determine whether any spores fail to germinate under the conditions of the OIC measurement but remain viable for subsequent germination and outgrowth. Spores were incubated for 24 h in the presence of germinant (taurocholate) and one of the polymers or other agents at multiple concentrations above the OIC. These solutions were then diluted 10 to 100-fold into sterile PBS, and further diluted upon plating onto BHIS agar medium containing germinant to achieve concentrations below the OIC of the relevant antimicrobial agent. Spore survival was calculated as the percentage of colony-forming units retrieved on outgrowth plates relative to the initial spore inoculum (100%).
Samples were diluted and plated onto BHIS medium containing 0.1% taurocholate and enumerated following incubation for at least 24 h at 37° C. Spore survival was calculated as the percentage of CFU post-assay/initial CFU.

[6] = test system: human red blood cells (hRBCs)
[7] = test system: C. difficile spores (R20291 strain); conditions: MH broth with taurocholate, 24 h at 37° C.
[8] = Clostridioides difficile, read-out: R20291 Mean Spore Viability

Work on `CN[C@H](CC(C)C)C(=O)N[C@H]1C(=O)N[C@@H](CC(N)=O)C(=O)N[C@H]2C(=O)N[C@H]3C(=O)N[C@H](C(=O)N[C@H](C(=O)O)c4cc(O)cc(O)c4-c4cc3ccc4O)[C@H](O)c3ccc(c(Cl)c3)Oc3cc2cc(c3O[C@@H]2O[C@H](CO)[C@@H](O)[C@H](O)[C@H]2O[C@H]2C[C@](C)(N)[C@H](O)[C@H](C)O2)Oc2ccc(cc2Cl)[C@H]1O` [vancomycin] yielded a viability at 0.5 µg/mL [1, 8] of 21.1%, a viability at 1 µg/mL [1, 8] of 7.7% and a viability at 2 µg/mL [1, 8] of 3.4%. The viability at 4 µg/mL [1, 8] was 1.3%, the viability at 8 µg/mL [1, 8] was 0.9% and the MIC [2] was > 32 µg/mL. It also gave an MIC [3] of 0.25 µg/mL (≈ 0.173 µM).

`CC[C@H](C)[C@H](NC(=O)[C@H](CCCCN)NC(=O)[C@H](CCC(=O)O)NC(=O)[C@H](CCCCN)NC(=O)[C@H](CO)NC(=O)[C@H](CCCCN)NC(=O)[C@H](CCCNC(=N)N)NC(=O)[C@H](Cc1ccccc1)NC(=O)[C@H](Cc1ccccc1)NC(=O)[C@H](CC(=O)O)NC(=O)CNC(=O)[C@H](CC(C)C)NC(=O)[C@@H](N)CC(C)C)C(=O)NCC(=O)N[C@@H](CCCCN)C(=O)N[C@@H](CCC(=O)O)C(=O)N[C@@H](Cc1ccccc1)C(=O)N[C@@H](CCCCN)C(=O)N[C@@H](CCCNC(=N)N)C(=O)N[C@H](C(=O)N[C@H](C(=O)N[C@@H](CCC(N)=O)C(=O)N[C@@H](CCCNC(=N)N)C(=O)N[C@H](C(=O)N[C@@H](CCCCN)C(=O)N[C@@H](CC(=O)O)C(=O)N[C@@H](Cc1ccccc1)C(=O)N[C@@H](CC(C)C)C(=O)N[C@@H](CCCNC(=N)N)C(=O)N[C@@H](CC(N)=O)C(=O)N[C@@H](CC(C)C)C(=O)N[C@H](C(=O)N1CCC[C@H]1C(=O)N[C@@H](CCCNC(=N)N)C(=O)N[C@H](C(=O)N[C@@H](CCC(=O)O)C(=O)N[C@@H](CO)C(=O)O)[C@@H](C)O)C(C)C)[C@@H](C)CC)C(C)C)[C@@H](C)CC` [LL-37] was tested, and the “R20291 Mean Spore Viability” value ([1]; concentration 10 μg/ml) was 0.4% (±0.7%), the “R20291 Mean Spore Viability” value ([1]; concentration 20 μg/ml) was 1.2% (±0.7%) and the “R20291 Mean Spore Viability” value ([1]; concentration 40 μg/ml) was 3.6% (±1.8%). For the same molecule, the “R20291 Mean Spore Viability” value ([1]; concentration 80 μg/ml) was 5.8% (±2.9%), the “OIC, minimum inhibition concentration for spore outgrowth” value [4] was 10 µg/mL and the “630ΔErm Mean Spore Viability” value ([5]; concentration 20 μg/ml) was 5.5% (±7.4%). For the same molecule, the “630ΔErm Mean Spore Viability” value ([5]; concentration 40 μg/ml) was 4.0% (±4.0%), the “630ΔErm Mean Spore Viability” value ([5]; concentration 80 μg/ml) was 7.8% (±3.9%) and the “hemolytic activity (in words)” value [6] was “significant hemolytic activity”. The “OIC, minimum inhibition concentration for spore outgrowth” value [7] was 5 µg/mL.
